The values that follow come from patent publication US20250122160A1, “PROTEIN TYROSINE PHOSPHATASE INHIBITORS AND METHODS OF USE THEREOF” (Calico Life Sciences LLC, priority 0001, published 2025).

In data set [1] the test system is Granzyme B+ cells within CD8+ T cells. Put plainly: Granzyme B staining of CD8 T cells flow cytometry assay in mouse spleen. Format: in vivo. The note with it: day 8 of dosing. On the procedure: Mice were sacrificed on day 8 of dosing with Compound 118 (2 hours after the 16th dose) and spleens were excised. Spleens were dissociated with a gentleMACS dissociator (Miltenyi Biotec. Bergisch Gladbach. Germany), red blood cells lysed, and single cell suspensions were prepared. Splenocytes were stained with Zombie UV™ Fixable Viability kit (Biolegend. San Diego, CA) diluted in Dulbecco's PBS for 10 minutes at room temperature to exclude dead cells followed by staining for surface markers for 45 minutes on ice using the following flow cytometry antibodies diluted in autoMACS Running Buffer (Miltenyi Biotec. Bergisch Gladbach, Germany); Brilliant Violet 510)-labeled anti-CD45. Brilliant Ultraviolet 395-labeled anti-CD3. Brilliant Violet 786-labeled anti-CD4. APC/Cy7-labeled anti-CD8. Cells were washed twice with autoMACS Running Buffer, permeabilized with Fixation/Permeabilization buffer (FoxP3/Transcription Factor Staining Buffer Set; eBioscience) and stained intracellularly with PE-labeled anti-Granzyme B antibody diluted in Permeabilization buffer (FoxP3/Transcription Factor Staining Buffer Set; eBioscience, San Diego, CA) for 1 hour on ice. After staining, cells were washed twice with autoMACS Running Buffer, and the samples were acquired on a BD LSRFortessa™ X20 flow cytometers (BD Biosciences, San Jose, CA) and analyzed with FLowJo V10 software (FlowJo, Ashland, OR). […]

Data set [2] has as its target T1, His tagged full-length PTPN1 protein (Homo sapiens, UniProt P18031).
T1 construct: made in house
T1 sequence (P18031 with tags, fused parts or gaps): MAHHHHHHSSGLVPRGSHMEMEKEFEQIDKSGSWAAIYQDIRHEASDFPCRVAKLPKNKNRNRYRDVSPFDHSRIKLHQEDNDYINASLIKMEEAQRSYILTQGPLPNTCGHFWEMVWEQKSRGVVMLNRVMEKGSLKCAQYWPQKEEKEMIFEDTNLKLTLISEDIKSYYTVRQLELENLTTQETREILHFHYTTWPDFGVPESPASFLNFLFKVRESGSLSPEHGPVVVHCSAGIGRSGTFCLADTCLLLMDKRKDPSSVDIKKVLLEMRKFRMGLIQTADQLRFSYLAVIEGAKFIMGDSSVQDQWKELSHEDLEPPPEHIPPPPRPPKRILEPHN
Put plainly: Mobility shift assay (MSA) to determine potency of PTPN1 inhibitors. Format: biochemical. To be noted: 0.5 nM enzyme, 2 μM substrate. Summed up: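 His-tagged full-length human PTPN1 (0.5 nM) preincubated with compound 10 min at room temperature in pH 7.5 HEPES buffer with EGTA, EDTA, Tween 20 and DTT. Dephosphorylation of 2 μM fluorescent phospho-insulin-receptor peptide over 10 min measured by mobility shift. IC50 from % inhibition across a 12-point, 1:3 dilution series.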

The subject of data set [3] is pSTAT5 in CD3+ T cells. Put plainly: pSTAT5 flow cytometry assay in mouse whole blood. Format: in vivo. To be noted: day 8 of dosing. On the procedure: Whole blood was drawn into EDTA powder coated tubes by cardiac puncture from mice on day 8 of dosing with Compound 118 (2 hours after the 16th dose). 90 μL of whole blood were stimulated with 10 μL of murine IL-2 to achieve a final concentration of 100 ng IL-2/mL (R&D Systems. Minneapolis, MN, cat #402-ML) for 20 minutes at 37° C. 5% CO2. After stimulation. 1.8 mL of prewarmed BD Phosflow Lyse/Fix Buffer (BD Biosciences. San Jose. CA) was added for 20 minutes at 37° C. Cells were washed twice in FACS buffer (Dulbecco's PBS with 0.2% BSA) and incubated for 30 minutes on ice in cold Perm Buffer III (BD Biosciences. San Jose. CA). Cells were washed with FACS buffer and resuspended in 50 μL of FACS buffer with antibodies and stained for 3 hours at room temperature with gentle shaking. […] After staining, cells were washed twice with FACS buffer, and the samples were acquired on a BD LSRFortessa™ X20 flow cytometers (BD Biosciences. San Jose, CA) and analyzed with FLowJo V10 software (FlowJo, Ashland, OR). The mean fluorescence intensity (MFI) of pSTAT5 as a measure of the amount of phosphorylated STAT5 in the CD3+ T cell population from vehicle or Compound 118 treated animals was reported.

Data set [4] has as its system IP10. Briefly: Cytokine measurement in mouse plasma (IP10). The data set is classed as in vivo. To be noted: day 8 of dosing. As for the experimental part:
Whole blood was drawn into EDTA powder coated tubes by cardiac puncture from mice on day 8 of dosing with Compound 118 (2 hours after the 16th dose) and plasma was prepared by centrifugation. Cytokines in plasma were measured using the Th1/Th2 Cytokine & Chemokine 20-Plex Mouse ProcartaPlex™ Panel 1 (Invitrogen, Carlsbad, CA). IP10 levels (pg/mL) in vehicle or Compound 118 treated animals were reported.

Data set [5] concerns MC-38 murine colon adenocarcinoma. Put plainly: In vivo efficacy in MC38 mouse tumor model. As for the experimental part:
All experiments were conducted in compliance with AbbVie's Institutional Animal Care and Use Committee and the National Institutes of Health Guide for Care and Use of Laboratory Animals guidelines in a facility accredited by the Association for the Assessment and Accreditation of Laboratory Animal Care. C57Bl/6 female mice were obtained from Charles River (Wilmington, MA). The mice were group-housed 10 per cage. Food and water were available ad libitum. Animals were acclimated to the animal facilities for a period of at least one week prior to commencement of experiments. Animals were tested in the light phase of a 12-hour light:12-hour dark schedule (lights on 0600 hours).
Cells were grown to passage 3 in vitro. A total of 1×10^5 viable MC-38 cells were inoculated subcutaneously into the right flank of female C57Bl/6 mice (7-12 weeks old) on Day 0. […] Tumor volume was calculated three times weekly. Measurements of the length (L) and width (W) of the tumor were taken via electronic caliper and the volume was calculated according to the following equation: V=L×W^2/2 using Study Director Version 3.1.399.22 (Studylog Systems, Inc, CA, USA). […] Tumor growth inhibition (TGI) was calculated as TGI=1−(Mean TVTimepoint(Treatment)/Mean TVTimepoint(Vehicle)) for each timepoint that tumor volumes were measured. […]

Data set [6] concerns the target T2, His tagged PTPN2 (TC45) protein (Homo sapiens, UniProt P17706).
T2 construct: made in house
T2 sequence (P17706 with tags, fused parts or gaps isoform P17706-2): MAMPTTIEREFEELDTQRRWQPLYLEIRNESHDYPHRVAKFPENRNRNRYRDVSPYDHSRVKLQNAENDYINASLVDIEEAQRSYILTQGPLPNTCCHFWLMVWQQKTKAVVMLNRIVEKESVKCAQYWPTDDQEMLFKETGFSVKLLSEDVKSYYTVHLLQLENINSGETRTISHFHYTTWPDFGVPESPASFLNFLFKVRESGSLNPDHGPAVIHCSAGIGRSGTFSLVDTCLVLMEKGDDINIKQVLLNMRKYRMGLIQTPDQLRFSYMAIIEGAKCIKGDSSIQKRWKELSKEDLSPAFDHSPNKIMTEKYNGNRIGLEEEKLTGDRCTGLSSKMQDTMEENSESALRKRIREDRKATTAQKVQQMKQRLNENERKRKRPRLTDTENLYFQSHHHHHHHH
Briefly: Mobility shift assay (MSA) to determine potency of PTPN2 inhibitors. Format: biochemical. The note with it: 0.5 nM enzyme, 2 μM substrate. Put shortly: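 His-tagged human PTPN2 (TC45), 0.5 nM, preincubated 10 min at room temperature with compound (12-point, 1:3 dilutions) in HEPES pH 7.5 buffer with EGTA, EDTA, Tween 20 and DTT. Then 2 μM OG488-labelled phospho-insulin-receptor peptide was added for 10 min and quenched. % conversion was read by mobility shift, and IC50 came from % inhibition.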

For data set [7], the system named is B16F10 mouse melanoma cells. Put plainly: B16F10 IFNγ-induced cellular growth inhibition assay. The note with it: B16-F10, with 0.5 ng/ml IFNγ, read-out: B16F10 GI IC50. Format: cell-based. As for the experimental part:
B16F10 mouse melanoma cells (ATCC Cat #CRL-6475, Manassas, VA) were seeded at a density of 500 cells per well in a 384-well clear bottom plate (Corning Cat #3765, Corning, NY) in 25 μL total volume of DMEM+10% FBS (Sigma Cat #D6429 and Sigma Cat #F4135, St. Louis, MO). Cells were allowed to adhere overnight at 37° C.+5% CO2. On the following day, 12.5 μL of mouse IFNγ (RD systems Cat #485-MI/CF, Minneapolis, MN) was added to half of the plate (columns 13-24) at a concentration of 2 ng/ml for a final assay concentration of 0.5 ng/ml of IFNγ. Media only (12.5 μL of DMEM+10% FBS) was added to the remainder of the plate (columns 1-12). Next, compounds resuspended in DMSO (Sigma Cat #D2650) at 100 mM were diluted in semi-log dilutions in DMSO ranging from 100 mM to 0.001 mM and DMSO only controls were included. The compound/DMSO dilutions were further diluted 1:250 in DMEM+10% FBS, and 12.5 μL of these dilutions were added in triplicates to cells of both treatment arms (with and without IFNγ). Final compound concentrations ranged from 100 μM to 0.001 μM with a final DMSO concentration of 0.1%. […] Confluence over time for compound dilutions in the presence and absence of IFNγ was measured. […] At these time points, for each compound the percent growth inhibition at every compound dose level was calculated relative to the “DMSO/with IFNγ” control and used to determine the IC50.

Each structure is given as a SMILES string.

For orientation: IC50 means the concentration that inhibits the measured activity by half. As to `CC(C)CCN[C@@H]1CCc2cc(O)c(N3CC(=O)NS3(=O)=O)c(F)c2C1` (single isomer, unassigned) [Compound 118], the “frequency of granzyme B producing cells within CD8+ T population in spleen, fold higher than vehicle control” value in data set [1] is reported as 3.9 fold. Also, the concentration for half-maximal inhibition (IC50) in data set [2] fell in the range of 1 to 10 nM. In addition, the “pSTAT5 levels in whole blood T cells, fold higher than vehicle control” value in data set [3] turned out to be 1.6 fold. In data set [4], the “IP10 levels in plasma, fold higher than vehicle control” value is 1.7 fold. Moreover, the tolerability entry in data set [5] (10 mg/kg/dose oral BID for 21 days) is given as “well tolerated, without obvious adverse health events”. Moreover, the tumor response observed entry in data set [5] (within 7-10 days of treatment) was “apparent tumor stasis and shrinkage”.
`CC(C)(C)O[C@H]1C[C@@H](CCNC2CCc3cc(O)c(N4CC(=O)NS4(=O)=O)c(F)c3C2)C1` (stereo partly drawn) [Compound 234]: the results for the IC50 in data set [2], in data set [6] and in data set [7] were 1 to 10 nM, 10 to 100 nM and 1000 to 10000 nM, respectively.
